{"source": "patent US9855239B2", "about": "“Methods for the treatment and prevention of age-related retinal dysfunction” (University of Washington, priority 2008, dated 2018)", "key": {"C57BL/6 female mice": {"test_system": "C57BL/6 female mice", "assay": "Recovery of ERG response (dark adaptation) after bleach, long-term treatment", "format": "in vivo, mouse", "conditions": "500 cd·m^−2 for 3 min, 60 min dark adaptation", "protocol": "Recovery of the ERG response (dark adaptation) following bleach was measured by monitoring the amplitude of a-waves after retinal exposure to intense constant illumination (500 cd·m^−2, ˜90% bleached rhodopsin) for 3 min. […] Retinoid kinetics in the eyes of each group were quantitatively evaluated during 60 min of dark adaptation after 3 min of bleaching at four subsequent time points of dark adaptation (0, 10, 30, and 60 min). […] Neither 9-cis-retinal nor 9-cis-retinyl esters were found in eyes from untreated groups (data not shown).\nSix groups of mice were studied (FIG. 1B).\n(§1) Two weeks after the last gavage with either, 9-cis-R-Ac, all-trans-R-Ac or vehicle, groups of 48 hr dark-adapted mice were analyzed for recovery of dark adaptation after light exposure, purified rhodopsin/opsin and retinoids in the eye and retinal morphology (FIG. 1C; Methods). Mice were exposed to light of intensity 500 cd·m^−2 that bleached ˜90% of rhodopsin, anesthetized and monitored by ERG for one hr to evaluate recovery of dark adaptation. Rhodopsin was purified and rhodopsin/opsin ratios was determined. Retinoid analyses were performed on dissected eyes removed at 0, 10, 30, and 60 min after exposure to the same amount of light. Mice used to evaluate retinal morphology were not exposed to photobleaching prior to analysis.\nERGs of anesthetized mice were recorded as previously reported."}, "retina": {"test_system": "retina", "assay": "Retinal morphology (light and electron microscopy)", "format": "in vivo, mouse", "protocol": "The thickness of each major layer in the retina was also similar between control and treated groups.\nFor light microscopy, mouse eyecups were fixed with 2.5% glutaraldehyde and 1.6% paraformaldehyde in 0.08 M 1,4-piperazinediethanesulfonate buffer (PIPES) (pH 7.4) containing 2% sucrose for ˜1 hr at room temperature followed by 23 hr at 4° C. Eyecups then were washed with 0.13 M sodium phosphate buffer (pH 7.3) and dehydrated through a CH3OH series and embedded in JB4 glycol metacrylate. Sections (6 μm) were stained by immersion in 5% Richardson's stain for 1.5-2 min at room temperature and destained in 0.13 M sodium phosphate (pH 7.3) until the retinal layers were visible by light microscopy (about 8-15 min). For transmission electron microscopy, mouse eyecups were analyzed as described previously (Maeda, A., et al. J Blot Chem 280, 18822-18832 (2005); Maeda, T., Lem, J., Palczewski, K. & Haeseleer, F. Investigative ophthalmology & visual science 46, 4320-4327 (2005))."}, "rhodopsin/opsin": {"molecular_target": "T1, rhodopsin/opsin (Mus musculus, UniProt P15409)", "T1 construct": "from tissue; host or cells: whole eyes of wild-type C57BL/6 female mice", "T1 sequence (P15409 whole entry)": "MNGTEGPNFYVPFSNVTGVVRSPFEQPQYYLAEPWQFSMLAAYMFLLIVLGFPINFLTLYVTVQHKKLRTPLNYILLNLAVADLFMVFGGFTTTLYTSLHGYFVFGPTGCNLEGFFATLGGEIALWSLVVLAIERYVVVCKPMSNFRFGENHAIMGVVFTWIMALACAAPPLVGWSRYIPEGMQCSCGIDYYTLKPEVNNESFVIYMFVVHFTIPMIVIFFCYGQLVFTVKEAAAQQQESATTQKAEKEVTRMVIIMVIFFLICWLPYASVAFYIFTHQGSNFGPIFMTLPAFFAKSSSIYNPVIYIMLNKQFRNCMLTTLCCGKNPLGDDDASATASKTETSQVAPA", "assay": "Purified rhodopsin/opsin analysis after long-term treatment", "format": "in vivo", "protocol": "as §1\nRhodopsin purification was done under dim red light as previously described (Zhu, L., et al. J Biot Chem, 279, 53828-53839 (2004)). Purified anti-rhodopsin C terminus antibody 1D4 (MacKenzie, D., Arendt, A., Hargrave, P., McDowell, J. H. & Molday, R. S. Biochemistry, 23, 6544-6549 (1984)) was immobilized on CNBr-activated Sepharose 4B and a 4.6×12-mm column was packed with 2 mg of 1 D4 antibody/ml of Sepharose beads. Mouse whole eyes were homogenized in 137 mM NaCl, 5.4 mM Na2HPO4, 2.7 mM KCl and 1.8 mM KH2PO4 (pH 7.5) with a glass-to-glass homogenizer. Soluble proteins in the supernatant were removed by centrifugation at 14,000×g for 5 min and the pellet was solubilized in buffer containing 1% dodecyl-β-maltoside in 10 mM Bis-Tris propane (pH 7.5) containing 500 mM NaCl. The supernatant was cleared by centrifugation at 125,000×g for 20 min and loaded onto an antibody 1 D4-packed immunoaffinity column which was then thoroughly washed at a flow rate of 0.5 ml/min with 10 mM Bis-Tris propane (pH 7.5) containing 500 mM NaCl and 0.1% dodecyl-β-maltoside. […] Purified rhodopsin concentration was determined at 500 nm and total amount of opsin and rhodopsin at 280 nm with a Hewlett-Packard 8452A UV-visible spectrophotometer (Palczewski, K., Carruth, M. E., Adamus, G., McDowell, J. H. & Hargrave, P. A. Vision Research, 30, 1129-1137 (1990))."}, "[1]": {"assay": "Hepatic retinoic acid levels after long-term treatment", "format": "in vivo, mouse", "conditions": "all groups", "protocol": "To evaluate the safety of long-term administration of 9-cis-R-Ac, A2E accumulation was measured (FIG. 6A), because retinals spontaneously condense to this compound (Mata, N. L., Weng, J. & Travis, G. H. Proceedings of the National Academy of Sciences of the United States of America 97, 7154-7159 (2000); Parish, C. A., Hashimoto, M., Nakanishi, K., Dillon, J. & Sparrow, J. Proceedings of the National Academy of Sciences of the United States of America 95, 14609-14613 (1998)).\nAnalysis of retinoic acid in the liver was carried out as described before (Batten, M. L., et al. PLoS Medicine 2, e333 (2005)) by an Agilent 1100 HPLC with two tandem normal phase columns: a Varian Microsorb Silica 3 μm, 4.6×100 mm (Varian, Palo Alto, Calif.) and an Ultrasphere-Si, 5 μm, 4.6×250 mm column. An isocratic solvent system of 1000:4.3:0.675 hexane:2-propanol:glacial acetic acid (v/v) was used at a flow rate of 1 ml/min at 20° C. with detection at 355 nm. Calibration was done with standards of all-trans-RA and 9-cis-RA purchased from Sigma-Aldrich."}}, "note": "“Also recorded” adds a separate entry of the source."}
{"smiles": "CC(=O)OC/C=C(C)/C=C/C=C(C)\\C=C\\C1=C(C)CCCC1(C)C", "note": "[9-cis-R-Ac, 9-cis-retinyl acetate]", "values": [{"measurement": "recovery of ERG a-wave response (dark adaptation) after bleach", "setting": "C57BL/6 female mice; 10 months of age, N1 vs C1", "result": "significantly faster; also recorded: significantly higher; also recorded: restored the rate of recovery to that seen in 4-month-old mice"}, {"measurement": "recovery of ERG a-wave response (dark adaptation) after bleach", "setting": "C57BL/6 female mice; 14 months of age, treated (9-cis-R-Ac: N2 and N3) vs C2", "result": "significantly faster; also recorded: significantly higher recovery rate"}, {"measurement": "retinal abnormalities by light microscopy", "setting": "retina; 10 and 14 months of age", "result": "no major abnormalities"}, {"measurement": "EM analysis of the outer retina and RPE layer", "setting": "retina; control vs treated", "result": "no gross differences"}, {"measurement": "thickness of each major layer in the retina", "setting": "retina; control vs treated", "result": "similar"}, {"measurement": "lengths of rod outer segments (ROS)", "setting": "retina; control vs treated at 10 and 14 months of age", "result": "similar"}, {"measurement": "amounts of purified protein recovered", "setting": "rhodopsin/opsin; 10-month-old treated mice, N1 versus C1", "result": "only slightly attenuated"}, {"measurement": "amounts of purified protein recovered", "setting": "rhodopsin/opsin; 14 months of age, N2 and N3 vs C2", "result": "significantly lower"}, {"measurement": "regeneration ratios (rhodopsin/opsin) and total amounts of purified rhodopsin", "setting": "rhodopsin/opsin; long-term treatment, 10 and 14 months of age, control vs treated", "result": "no significant differences"}, {"measurement": "hepatic retinoic acid levels", "setting": "[1]", "result": "below detectable levels; also recorded: did not accumulate"}]}
